The source of these data is patent publication US20160208297A1, “OMEGA3 UNSATURATED FATTY ACID ENZYME AND METHOD FOR PRODUCING EICOSAPENTAENOIC ACID” (KYOTO UNIVERSITY, priority 2013, published 2016).

The subject of this assay is polypeptide (SEQ ID NO: 2) ω3 desaturase. In words: conversion of added ω6 unsaturated fatty acids to ω3 unsaturated fatty acids by yeast transformant expressing the cDNA (SEQ ID NO: 1). The class given is cell-based, Pythium folliculosum. Conditions: for conversion into the corresponding ω3 unsaturated fatty acid / Conversion rate (%): Saccharomyces cerevisiae InvSc1 transformant, 28° C., two days; for Conversion rate (%): substrate added to medium, [product amount/(substrate amount + product amount)] × 100. On the procedure:
The cDNA (SEQ ID NO: 1) prepared in the above was integrated into a yeast expression vector, pYE22m (Biosci. Biotech. Biochem., 1995, 59: 1221-1228). The vector was introduced into Saccharomyces cerevisiae InvSc1 strain (tryptophan auxotrophy […]) by an electroporation method to obtain a transformant. The transformant was cultured in YPD culture medium (polypeptone 20 g, yeast extract 10 g, adenine 0.4 g, agar 20 g and glucose 20 g were diluted in 1,000 mL of water) at 28° C. for one day to express the polypeptide from cDNA integrated therein. Note that ω3 desaturase inherent in the oleaginous yeast is not expressed in this culture condition. Subsequently, to the culture medium, an ω6 unsaturated fatty acid: linoleic acid (LA, 18: 2n-6), γ-linolenic acid (GLA, 18: 3n-6), dihomo-γ-linolenic acid (DGLA, 20: 3n-6), or arachidonic acid (ARA, 20: 4n-6) was added and cultured at 28° C. for two days. Thereafter the amounts of the corresponding ω3 unsaturated fatty acid: α-linolenic acid (ALA, 18: 3n-3), stearidonic acid (SDA, 18: 4n-3), eicosatetraenoic acid (ETA, 20: 4n-3) or eicosapentaenoic acid (EPA, 20: 5n-3) produced by ω3 unsaturation were measured.

With `CCCCC/C=C\C/C=C\C/C=C\C/C=C\CCCC(=O)O` [AA, arachidonic acid], the “conversion into the corresponding ω3 unsaturated fatty acid” value was “converted into the corresponding ω3 unsaturated fatty acids” and the “Conversion rate (%)” value amounted to 7.86%.

For the molecule `CCCCC/C=C\C/C=C\C/C=C\CCCCCCC(=O)O` [DGLA, dihomo-γ-linolenic acid], the “conversion into the corresponding ω3 unsaturated fatty acid” value was “converted into the corresponding ω3 unsaturated fatty acids” and the “Conversion rate (%)” value is 6.90%.

As for `CCCCC/C=C\C/C=C\C/C=C\CCCCC(=O)O` [GLA, γ-linolenic acid], the “conversion into the corresponding ω3 unsaturated fatty acid” value is on record as “converted into the corresponding ω3 unsaturated fatty acids” and the “Conversion rate (%)” value turned out to be 8.36%.

As to `CCCCC/C=C\C/C=C\CCCCCCCC(=O)O` [LA, linoleic acid], the “conversion into the corresponding ω3 unsaturated fatty acid” value was “converted into the corresponding ω3 unsaturated fatty acids” and the “Conversion rate (%)” value amounted to 3.03%.

B1: polypeptide (SEQ ID NO: 2): ω3 desaturase derived from Pythium folliculosum or Pythium torulosum, encoded by cDNA SEQ ID NO: 1 (protein, listed as Pythium folliculosum)
chain: MADVNTSSPAAAPVATPEPFEFPSLTELKRSIPARYFESSAPRSLLFTARAFAFAYAFGAALFHARQLPLVAEHAALDALLCAAYTFLQGVNMWGFFTIGHDCGHGSFSRYHLLNFVVGTLTHSLILTPYEAWKLSHRLHHKNTGNIDQDEIFYPQRKETVNDPARKMVLSFGLAWWIYEIIGFPPRTEEHTELRDSLFSRHLITGSLSVLAHLACVMLAFNLTYVLGWATMGVYYWAPLFVFASMLVITTFLHHNDEETPWYADSEWTYVKGNLSSVDRDYGWVVNHLSHNIGTHQVHHLFPIIPHYNLNGATEYFRKAFPHLVRKSDDRILPAFVRVGLLYVKYGVIENDAKHFSLKDNREVLTKRA
modifications: Omega-3 desaturase
On to B1, for which the ω3 desaturation activity entry (expressed in Saccharomyces cerevisiae InvSc1, 28° C.) is “an enzyme having ω3 desaturation activity at normal temperature”.
